# Data as given in ChEMBL document CHEMBL3727364, “Resorcinol n-aryl amide compounds, for use as pyruvate dehydrogenase kinase inhibitors” (2015).
# Target: [Pyruvate dehydrogenase (acetyl-transferring)] kinase isozyme 1, mitochondrial (Homo sapiens, UniProt Q15118)
# Experiment: Binding affinity to pyruvate dehydrogenase kinase 1 (unknown origin) incubated for 90 mins by VER-00160364 probe based fluorescence polarization assay
# Chain of [Pyruvate dehydrogenase (acetyl-transferring)] kinase isozyme 1, mitochondrial (Q15118 whole entry): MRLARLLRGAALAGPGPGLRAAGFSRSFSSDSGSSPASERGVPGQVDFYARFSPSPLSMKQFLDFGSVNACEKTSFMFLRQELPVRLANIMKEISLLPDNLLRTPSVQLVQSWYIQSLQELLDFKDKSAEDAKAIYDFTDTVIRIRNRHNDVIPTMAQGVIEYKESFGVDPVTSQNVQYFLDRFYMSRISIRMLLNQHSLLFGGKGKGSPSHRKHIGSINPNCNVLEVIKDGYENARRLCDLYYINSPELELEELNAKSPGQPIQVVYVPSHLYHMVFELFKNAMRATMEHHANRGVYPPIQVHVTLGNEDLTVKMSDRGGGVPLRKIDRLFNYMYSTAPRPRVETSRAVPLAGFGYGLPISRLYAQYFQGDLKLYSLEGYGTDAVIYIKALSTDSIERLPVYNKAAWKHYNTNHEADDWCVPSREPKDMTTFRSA
row,Compound,IC50 [nM]
1,O=C(c1ccc(O)cc1O)N(Cc1ccsc1)c1ccc(-c2ccnc3ccccc23)cc1,1000
2,O=C(c1ccc(O)cc1O)N(Cc1ccsc1)c1ccc(-c2nc3ccccc3cc2CO)cc1,100
3,Cc1cc2cc(F)ccc2nc1-c1ccc(N(Cc2ccsc2)C(=O)c2ccc(O)cc2O)cc1,1000
4,O=C(c1ccc(O)cc1O)N(Cc1ccsc1)c1ccc(-c2cnc3ccccc3n2)cc1,10000
5,CN(Cc1cccc2ccccc12)C(=O)c1ccc(N(Cc2ccsc2)C(=O)c2ccc(O)cc2O)cc1,1000
6,COc1cnc(Cl)nc1-c1ccc(N(Cc2ccsc2)C(=O)c2ccc(O)cc2O)cc1,100
7,Cc1ccc(S(N)(=O)=O)nc1-c1ccc(N(Cc2ccsc2)C(=O)c2ccc(O)cc2O)cc1,100
8,Cc1nc(-c2ccc(N(Cc3ccsc3)C(=O)c3ccc(O)cc3O)cc2)c2ccccc2n1,1000
9,CCc1cc2ccccc2nc1-c1ccc(N(Cc2ccsc2)C(=O)c2ccc(O)cc2O)cc1,1000
10,Cc1cc(S(=O)(=O)N2CCCCC2)cnc1-c1ccc(N(Cc2ccsc2)C(=O)c2ccc(O)cc2O)cc1,10
11,CN(Cc1ccc2ccccc2n1)C(=O)c1ccc(N(Cc2ccsc2)C(=O)c2ccc(O)cc2O)cc1,100
12,COc1ccc(CN(C)C(=O)c2ccc(N(Cc3ccsc3)C(=O)c3cc(Cl)c(O)cc3O)cc2)cc1,100
13,CN(C)C(=O)c1ccc(N(Cc2ccsc2)C(=O)c2ccc(O)cc2O)cc1,10
14,O=C(c1ccc(O)cc1O)N(Cc1ccsc1)c1ccc(-c2ncnc3ccc(Cl)cc23)cc1,1000
15,COc1cc(-c2ccc(N(Cc3ccsc3)C(=O)c3ccc(O)cc3O)cc2)cnc1OC,10000
16,CSc1nc(-c2ccc(N(Cc3ccsc3)C(=O)c3ccc(O)cc3O)cc2)c2cc[nH]c2n1,1000
17,COc1cc(-c2ccc(N(Cc3ccsc3)C(=O)c3ccc(O)cc3O)cc2)ncn1,10000
18,COc1ccc2nc(-c3ccc(N(Cc4ccsc4)C(=O)c4ccc(O)cc4O)cc3)c(C)cc2c1,100
19,N#Cc1cc(Cl)nc(-c2ccc(N(Cc3ccsc3)C(=O)c3ccc(O)cc3O)cc2)c1,10000
20,O=C(c1ccc(O)cc1O)N(Cc1ccsc1)c1ccc(-c2ncnc3cccc(F)c23)cc1,100
21,Cc1cc(S(=O)(=O)N(C)CCO)cnc1-c1ccc(N(Cc2ccsc2)C(=O)c2ccc(O)cc2O)cc1,100
22,Cc1cc(S(=O)(=O)N2CCN(C)CC2)cnc1-c1ccc(N(Cc2ccsc2)C(=O)c2ccc(O)cc2O)cc1,10

row,Compound,IC50 [nM]
1,Cc1cc2ccc(F)cc2nc1-c1ccc(N(Cc2ccsc2)C(=O)c2ccc(O)cc2O)cc1,100
2,Nc1nccc(-c2ccc(N(Cc3ccsc3)C(=O)c3ccc(O)cc3O)cc2)n1,1000
3,CCNc1cc(-c2ccc(N(Cc3ccsc3)C(=O)c3ccc(O)cc3O)cc2)ncn1,10000
4,CN(Cc1ccc2ccccc2c1)C(=O)c1ccc(N(Cc2ccsc2)C(=O)c2ccc(O)cc2O)cc1,1000
5,Cc1cc(S(=O)(=O)N2CCC(F)(F)CC2)cnc1-c1ccc(N(Cc2ccsc2)C(=O)c2ccc(O)cc2O)cc1,1000
6,Cc1cc2ccccc2nc1-c1ccc(N(Cc2ccsc2)C(=O)c2ccc(O)cc2O)cc1,100
7,O=C(c1ccc(O)cc1O)N(Cc1ccsc1)c1ccc(-c2nc(Cl)nc3[nH]ccc23)cc1,1000
8,CN(Cc1ccnc2ccccc12)C(=O)c1ccc(N(Cc2ccsc2)C(=O)c2ccc(O)cc2O)cc1,100
9,Cc1cc(S(=O)(=O)NCCN(C)C)cnc1-c1ccc(N(Cc2ccsc2)C(=O)c2ccc(O)cc2O)cc1,10
10,Cc1cccnc1-c1ccc(N(Cc2cccnc2)C(=O)c2cc(Cl)c(O)cc2O)cc1,10
11,O=C(c1ccc(O)cc1O)N(Cc1ccsc1)c1ccc(-c2ncnc3ccsc23)cc1,1000
12,CN(Cc1ccc2c(ccn2C)c1)C(=O)c1ccc(N(Cc2ccsc2)C(=O)c2ccc(O)cc2O)cc1,1000
13,O=C(c1ccc(O)cc1O)N(Cc1ccsc1)c1ccc(-c2ncccc2CO)cc1,100
14,Cc1nccnc1-c1ccc(N(Cc2ccsc2)C(=O)c2ccc(O)cc2O)cc1,100
15,Cc1nc(C(F)(F)F)nc(-c2ccc(N(Cc3ccsc3)C(=O)c3ccc(O)cc3O)cc2)c1C,100
16,O=C(c1ccc(O)cc1O)N(Cc1ccsc1)c1ccc(-c2nc(Cl)nc3c2COCC3)cc1,100
17,Cc1cc(S(=O)(=O)NCc2ccccc2)cnc1-c1ccc(N(Cc2ccsc2)C(=O)c2ccc(O)cc2O)cc1,100
18,Cc1cc2ccccc2nc1-c1ccc(N(Cc2cccnc2)C(=O)c2ccc(O)cc2O)cc1,10
19,O=C(c1ccc(O)cc1O)N(Cc1ccsc1)c1ccc(-c2nc(C(F)(F)F)nc3ccccc23)cc1,100
20,Cc1cnc(Cl)nc1-c1ccc(N(Cc2ccsc2)C(=O)c2cc(Cl)c(O)cc2O)cc1,10
21,COc1ccc(CN(C)C(=O)c2ccc(N(Cc3ccsc3)C(=O)c3cc(C)c(O)cc3O)cc2)cc1,10
22,Cc1cccnc1-c1ccc(N(Cc2cccnc2)C(=O)c2ccc(O)cc2O)cc1,100

row,Compound,IC50 [nM]
1,Cc1ncc(C)c(-c2ccc(N(Cc3ccsc3)C(=O)c3ccc(O)cc3O)cc2)n1,10
2,CCc1nccnc1-c1ccc(N(Cc2ccsc2)C(=O)c2ccc(O)cc2O)cc1,100
3,CN(Cc1ccc(OC(F)(F)F)cc1)C(=O)c1ccc(N(Cc2ccsc2)C(=O)c2ccc(O)cc2O)cc1,1000
4,Cc1cnc(Cl)nc1-c1ccc(N(Cc2ccsc2)C(=O)c2ccc(O)cc2O)cc1,100
5,COc1cc2cc(Cl)ccc2nc1-c1ccc(N(Cc2ccsc2)C(=O)c2ccc(O)cc2O)cc1,100
6,Cc1sc2ncnc(-c3ccc(N(Cc4ccsc4)C(=O)c4ccc(O)cc4O)cc3)c2c1C,1000
7,CN(Cc1cccc2cnccc12)C(=O)c1ccc(N(Cc2ccsc2)C(=O)c2ccc(O)cc2O)cc1,10
8,CN(Cc1cccc2cccnc12)C(=O)c1ccc(N(Cc2ccsc2)C(=O)c2ccc(O)cc2O)cc1,100
9,Cc1csc2ncnc(-c3ccc(N(Cc4ccsc4)C(=O)c4ccc(O)cc4O)cc3)c12,100
10,Cc1cc(C(=O)N(Cc2ccsc2)c2ccc(C(=O)N(C)C)cc2)c(O)cc1O,100
11,CN(Cc1cccs1)C(=O)c1ccc(N(Cc2ccsc2)C(=O)c2ccc(O)cc2O)cc1,100
12,CN(Cc1cccc2ncccc12)C(=O)c1ccc(N(Cc2ccsc2)C(=O)c2ccc(O)cc2O)cc1,100
13,O=C(c1ccc(O)cc1O)N(Cc1ccsc1)c1ccc(-c2nc(C(F)(F)F)ccc2C(F)(F)F)cc1,1000
14,Cc1cc(S(=O)(=O)NCc2cccnc2)cnc1-c1ccc(N(Cc2ccsc2)C(=O)c2ccc(O)cc2O)cc1,10
15,CCOc1ccc2nc(-c3ccc(N(Cc4ccsc4)C(=O)c4ccc(O)cc4O)cc3)c(C)cc2c1,1000
16,Cc1cc(S(=O)(=O)N2CC(F)(F)C2)cnc1-c1ccc(N(Cc2ccsc2)C(=O)c2ccc(O)cc2O)cc1,100
17,Cc1cc(C(=O)N(Cc2ccsc2)c2ccc(C(=O)N(C)Cc3ccc4nccnc4c3)cc2)c(O)cc1O,10
18,O=C(c1ccc(O)cc1O)N(Cc1ccsc1)c1ccc(-c2ccncc2C(F)(F)F)cc1,1000
19,COc1ccc(CN(C)C(=O)c2ccc(N(Cc3ccsc3)C(=O)c3ccc(O)cc3O)cc2)cc1,100
20,Cc1cc2cc(Cl)ccc2nc1-c1ccc(N(Cc2ccsc2)C(=O)c2ccc(O)cc2O)cc1,1000
21,CC(=O)N1CCN(S(=O)(=O)c2cnc(-c3ccc(N(Cc4ccsc4)C(=O)c4ccc(O)cc4O)cc3)c(C)c2)CC1,10
